Values of other authors in US7670624B2, “Gastrointestinal-specific multiple drug release system” (Astella Pharma Inc., priority 2004, dated 2010).
Structures can show the parent of a compound that is named as a salt.

Details: in vivo

## CN(C)c1ccc(O)c2c1C[C@H]1C[C@H]3[C@H](N(C)C)C(O)=C(C(N)=O)C(=O)[C@@]3(O)C(O)=C1C2=O [Minocycline hydrochloride]
  t1/2: 9.5 h

## NC(N)=Nc1nc(CSCCC(N)=NS(N)(=O)=O)cs1 [Famotidine]
  t1/2: 3 h
